{
  "source": "ChEMBL document CHEMBL1136493",
  "about": "“Synthesis and anti-HIV properties of new water-soluble bis-functionalized[60]fullerene derivatives” (Bioorg Med Chem Lett, 2003)",
  "details_in_all_cases": "Homo sapiens",
  "key": {"[1]": {"tested_on": "CCRF-CEM", "experiment": "Effective concentration required to inhibit HIV-induced (HIV-1) cytopathicity by 50% in CEM cell cultures", "type": "functional, cell-based"}, "[2]": {"tested_on": "CCRF-CEM", "experiment": "Effective concentration required to inhibit HIV-induced (HIV-2) cytopathicity by 50% in CEM cell cultures", "type": "functional, cell-based"}, "[3]": {"tested_on": "CCRF-CEM", "experiment": "Cytostatic concentration required to inhibit CEM cell proliferation by 50%", "type": "functional"}},
  "data": [
    {"smiles": "C[N+]1(CCOCCOCCN)CC23C4=c5c6c7c8c9c%10c%11c%12c%13c%14c%15c%16c%17c%18c%19c%20c%21c%22c%23c%24c(c2c%22c2c%22c%25c%26c(c5c(c6%10)c5c%11c6c%13c(c%14%18)c%10c%19c(c%212)c%25c%10c6c%265)C%223C1)C4C7C1=C%24C(=C%16C2(C[N+](C)(CCOCCOCCN)CC182)C%15C9%12)C%23C%17%20", "note": "(stereo not given)", "values": [
      {"measurement": "EC50", "setting": "[1]", "value": 0.96, "unit": "µM"},
      {"measurement": "EC50", "setting": "[2]", "value": "> 4", "unit": "µM"},
      {"measurement": "CC50", "setting": "[3]", "value": 3.02, "unit": "µM"}
    ]},
    {"smiles": "COCCOCCOCCOC(=O)C1(C(=O)OCCOCCOCCOC)C23C4=c5c6c7c8c9c%10c%11c%12c%13c9c9c%14c%15c%16c%17c%18c%19c%20c%21c%22c%23c%24c(c-%11c(c2c%24c2c%11c%24c%25c(c5c5c6c(c8%14)c%15c6c%17c(c%25c56)c5c%18c%21c(c%232)c%245)C%1113)C4C%107)C%12C%22C%201CN(CCOCCOCCN)CC%131C9C%19%16", "note": "(stereo not given)", "values": [
      {"measurement": "EC50", "setting": "[1]", "value": "> 4", "unit": "µM"},
      {"measurement": "EC50", "setting": "[2]", "value": "> 4", "unit": "µM"}
    ]},
    {"smiles": "C[N+]1(CCOCCOCCN)CC23C4=c5c6c7c8c9c%10c%11c%12c%13c9c9c%14c%15c%16c%17c%18c%19c%20c%21c%22c%23c%24c(c-%11c(c2c%24c2c%11c%24c%25c(c5c5c6c(c8%14)c%15c6c%17c(c%25c56)c5c%18c%21c(c%232)c%245)C%113C1)C4C%107)C%12C%22C%201C[N+](C)(CCOCCOCCN)CC%131C9C%19%16", "note": "(stereo not given)", "values": [
      {"measurement": "EC50", "setting": "[1]", "value": 0.4, "unit": "µM"},
      {"measurement": "EC50", "setting": "[2]", "value": "> 4", "unit": "µM"},
      {"measurement": "CC50", "setting": "[3]", "value": 4.79, "unit": "µM"}
    ]},
    {"smiles": "NCCOCCOCCN1CC23C4=c5c6c7c8c9c%10c%11c%12c%13c9c9c%14c%15c%16c%17c%18c%19c%20c%21c%22c%23c%24c(c-%11c(c2c%24c2c%11c%24c%25c(c5c5c6c(c8%14)c%15c6c%17c(c%25c56)c5c%18c%21c(c%232)c%245)C%113C1)C4C%107)C%12C%22C%201CN(CCOCCOCCN)CC%131C9C%19%16", "note": "(stereo not given)", "values": [
      {"measurement": "EC50", "setting": "[1]", "value": "> 4", "unit": "µM"},
      {"measurement": "EC50", "setting": "[2]", "value": "> 4", "unit": "µM"},
      {"measurement": "CC50", "setting": "[3]", "value": 7.2, "unit": "µM"}
    ]},
    {"smiles": "NCCOCCOCCN1CC23C4=c5c6c7c8c9c%10c%11c%12c%13c%14c%15c%16c%17c%18c%19c%20c%21c%22c%23c%24c(c2c%22c2c%22c%25c%26c(c5c(c6%10)c5c%11c6c%13c(c%14%18)c%10c%19c(c%212)c%25c%10c6c%265)C%223C1)C4C7C1=C%24C(=C%16C2(CN(CCOCCOCCN)CC182)C%15C9%12)C%23C%17%20", "note": "(stereo not given)", "values": [
      {"measurement": "EC50", "setting": "[1]", "value": "> 4", "unit": "µM"},
      {"measurement": "EC50", "setting": "[2]", "value": "> 4", "unit": "µM"},
      {"measurement": "CC50", "setting": "[3]", "value": 7.63, "unit": "µM"}
    ]},
    {"smiles": "C[N+]1(CCOCCOCCN)CC23C4=C5c6c7c8c9c(c%10c%11c%12c%13c%14c%15c%16c%17c%18c%19c%20c%21c%22c%23c(c6c6c%22c%22c%20c(c%15%19)c%13c(c%129)c%22c86)C5C5C6c8c9c(c-%17c%12c8C5C%23C%21C%12%18)C5c8c-9c(c2c-%10c8C%112C[N+](C)(CCOCCOCCN)CC%142C%165)C46)C73C1", "note": "(stereo not given)", "values": [
      {"measurement": "EC50", "setting": "[1]", "value": 1.6, "unit": "µM"},
      {"measurement": "EC50", "setting": "[2]", "value": "> 4", "unit": "µM"},
      {"measurement": "CC50", "setting": "[3]", "value": 6.59, "unit": "µM"}
    ]},
    {"smiles": "C[N+]1(CCOCCOCCN)CC23C4=c5c6c7c8c9c%10c%11c%12c%13c%14c%15c%16c%17c%18c%19c%20c%21c%22c%23c%24c(c2c%22c2c%22c%25c%26c(c5c(c6%10)c5c%11c6c%13c(c%14%18)c%10c%19c(c%212)c%25c%10c6c%265)C%223C1)C4C7c1c-%24c(c-%16c(c1-8)C%15C9%12)C%23C%17%20", "note": "(stereo not given)", "values": [
      {"measurement": "EC50", "setting": "[1]", "value": "> 4", "unit": "µM"},
      {"measurement": "EC50", "setting": "[2]", "value": "> 4", "unit": "µM"},
      {"measurement": "CC50", "setting": "[3]", "value": 44.3, "unit": "µM"}
    ]},
    {"smiles": "O=C(O)CN(CCOCCOCCN1CC23C4=c5c6c7c8c9c%10c%11c%12c%13c9c9c%14c%15c%16c%17c%18c%19c%20c%21c%22c%23c%24c(c-%11c(c2c%24c2c%11c%24c%25c(c5c5c6c(c8%14)c%15c6c%17c(c%25c56)c5c%18c%21c(c%232)c%245)C%113C1)C4C%107)C%12C%22C%201CN(CCOCCOCCN(CC(=O)O)CC(=O)O)CC%131C9C%19%16)CC(=O)O", "note": "(stereo not given)", "values": [
      {"measurement": "EC50", "setting": "[1]", "value": 2.01, "unit": "µM"},
      {"measurement": "EC50", "setting": "[2]", "value": "> 4", "unit": "µM"}
    ]},
    {"smiles": "NCCOCCOCCN1CC23C4=c5c6c7c8c9c%10c%11c%12c%13c%14c%15c%16c%17c%18c%19c%20c%21c%22c(c2c%20c2c%20c%23c%24c(c5c7c5c9c7c%11c(c%12%16)c9c%17c(c%192)c%23c9c7c%245)C%203C1)C4C1C=6C2c3c1c-%22c(c-%14c3C%13C%10C82)C%211CN(CCOCCOCCN)CC%15%181", "note": "(stereo not given)", "values": [
      {"measurement": "EC50", "setting": "[1]", "value": "> 4", "unit": "µM"},
      {"measurement": "EC50", "setting": "[2]", "value": "> 4", "unit": "µM"},
      {"measurement": "CC50", "setting": "[3]", "value": 7.4, "unit": "µM"}
    ]},
    {"smiles": "NCCOCCOCCN1CC23C4=C5c6c7c8c9c(c%10c%11c%12c%13c%14c%15c%16c%17c%18c%19c%20c%21c%22c%23c(c6c6c%22c%22c%20c(c%15%19)c%13c(c%129)c%22c86)C5C5C6c8c9c(c-%17c%12c8C5C%23C%21C%12%18)C5c8c-9c(c2c-%10c8C%112CN(CCOCCOCCN)CC%142C%165)C46)C73C1", "note": "(stereo not given)", "values": [
      {"measurement": "EC50", "setting": "[1]", "value": "> 4", "unit": "µM"},
      {"measurement": "EC50", "setting": "[2]", "value": "> 4", "unit": "µM"},
      {"measurement": "CC50", "setting": "[3]", "value": 9.6, "unit": "µM"}
    ]},
    {"smiles": "O=C(O)CN(CCOCCOCCN1CC23C4=C5c6c7c8c9c(c%10c%11c%12c%13c%14c%15c%16c%17c%18c%19c%20c%21c%22c%23c(c6c6c%22c%22c%20c(c%15%19)c%13c(c%129)c%22c86)C5C5C6c8c9c(c-%17c%12c8C5C%23C%21C%12%18)C5c8c-9c(c2c-%10c8C%112CN(CCOCCOCCN(CC(=O)O)CC(=O)O)CC%142C%165)C46)C73C1)CC(=O)O", "note": "(stereo not given)", "values": [
      {"measurement": "EC50", "setting": "[1]", "value": "> 4", "unit": "µM"},
      {"measurement": "EC50", "setting": "[2]", "value": "> 4", "unit": "µM"}
    ]},
    {"smiles": "C[N+]1(CCOCCOCCN)CC23C4=c5c6c7c8c9c%10c%11c%12c%13c%14c%15c%16c%17c%18c%19c%20c%21c%22c(c2c%20c2c%20c%23c%24c(c5c7c5c9c7c%11c(c%12%16)c9c%17c(c%192)c%23c9c7c%245)C%203C1)C4C1C=6C2c3c1c-%22c(c-%14c3C%13C%10C82)C%211C[N+](C)(CCOCCOCCN)CC%15%181", "note": "(stereo not given)", "values": [
      {"measurement": "EC50", "setting": "[1]", "value": 2.6, "unit": "µM"},
      {"measurement": "EC50", "setting": "[2]", "value": "> 4", "unit": "µM"},
      {"measurement": "CC50", "setting": "[3]", "value": 13.2, "unit": "µM"}
    ]},
    {"smiles": "COCCOCCOCCOC(=O)C1(C(=O)OCCOCCOCCOC)C23C4=C5c6c7c8c9c(c%10c%11c%12c%13c%14c%15c%16c%17c%18c%19c%20c%21c%22c%23c(c6c6c%22c%22c%20c(c%15%19)c%13c(c%129)c%22c86)C5C5C6c8c9c(c-%17c%12c8C5C%23C%21C%12%18)C5c8c-9c(c2c-%10c8C%112CN(CCOCCOCCN)CC%142C%165)C46)C713", "note": "(stereo not given)", "values": [
      {"measurement": "EC50", "setting": "[1]", "value": "> 4", "unit": "µM"},
      {"measurement": "EC50", "setting": "[2]", "value": "> 4", "unit": "µM"}
    ]}
  ]
}
